Marks after values point to notes of the source that are not given here. Non-standard residues stand in square brackets, D forms with d. No end group written: not given here.
Columns and labels:
juvenile tilapia [1] = assay: Growth promoting activity in juvenile tilapia, intraperitoneal injection; assay type: in vivo, Oreochromis aureus; details: intraperitoneal 0.1 μg/gbw twice a week, three weeks; P<0.05
Method: Juvenile hybrid tilapia (Oreochromis aureus) supplied by the Aquadique Aquaculture Station (Havana, Cuba) were acclimated in a 500 litters tank with re-circulating freshwater at 25° C. with constant photoperiod (14 hours light and 10 hours darkness) and fed with commercially prepared pellets (CENPALAB, Havana, Cuba). Daily rations equivalent to 5% of body weight were administered twice a day until they were used in the experiments.
GHRP-6 (BACHEM, Switzerland) was diluted in PBS and injected twice a week during three weeks at 0.1 μg per gram of fish body weight (gbw). The peptide was administered to a group of eight male tilapia with average body weight of 61±14.3 g and seven male tilapia with average body weight of 61.41±29.67 g were injected with PBS as a control group.
(§1) Body weight in grams was measured weekly. In all the experiments the animals were labeled with microchips (Stoelting Co. Wood Dale, U.S.A.).

protozoo Trichodina sp. = assay: Invasion intensity and extension of Trichodina sp. in tilapia treated by immersion; assay type: in vivo
Method: (§2) Tilapias (Oreochromis aureus) of 1.5 g of mean weigh were treated by immersion with two different doses of GHRP-6 (10 μg/100 ml and 100 μg/100 ml). A similar control group was treated with physiological solution.
(§3) In the experiment was measured the weigh (Table 1), biochemical blood parameters (Table 2), number of parasite in gill (Trichodinicos (Table 3) y Helmintos mongeneos (Table 4)) and humidity and protein concentration in muscle
(§4) Fifteen animals per group (3×) with mean weigh of 1 g were selected for the assay. In 9 tank of 40 liters were developed the experiment. One a week application was done for 45 days.
(§5) • Group I 10 μg/100 ml (Treatment 1) • Group II 100 μg/100 ml (Treatment 2) • Group III Control (Physiological solution)

serum GH = assay: Serum GH levels in tilapia injected with GHRP-6 (ELISA); assay type: in vivo; details: 15 min after intraperitoneal injection, 0.1 μg/gbw
Method: (§6) Fifteen tilapias with average weight 71±28 g were used for the experiment. The GHRP-6 was injected with hexapeptide at 0.1 μg/gbw. The liver and blood samples were drawn before the treatment and 15 min, 30 min, 1 h and 6 h after the peptide injection (three animals per group). The serum and liver sample were collected and stored at −70° C. until used for total RNA isolation and Northern blot analysis. A serum sample was also taken before the treatment in all animals.
Serum GH levels were determined by ELISA using two monoclonal antibodies against tilapia GH (Muñoz et al, in preparation).

[2] = system: shrimp Litopenaeus schmitti larvae; assay: Growth promoting activity in shrimp larvae treated by immersion; assay type: in vivo
Method: Three different doses of GHRP-6 were applied by immersion to groups or shrimp larvae. The application was made each three days. Four applications were made for each group, including one control group receiving bovine serum albumin (BSA). The treatment was made per 1 hour to a concentration of GHRP-6 per liter of seawater as follow: • Group 1: 0.001 mg/L • Group 2: 0.01 mg/L • Group 3: 0.1 mg/L • Group 4: 1 mg of BSA/L

tilapia [3] = assay: Weigh of tilapia treated with GHRP-6 by immersion; assay type: in vivo, Oreochromis aureus; details: for Mean weigh ± DS: once a week for 45 days
Method: as §2, §3, §4, §5

tilapia IGF mRNA = assay: Hepatic IGF mRNA levels in tilapia injected with GHRP-6 (Northern blot); assay type: in vivo; details: 0.1 μg/gbw
Method: as §6
Northern blot analysis was used to measure the relative IGF mRNA levels in tilapia injected with the peptide. Total RNA was purified from liver samples as described by Chomczynski and Sacchi (Chomczynski P, Sacchi N. Single step method of RNA isolation by acid guanidium thiocyanate-phenol-chloroform extraction. Anal Biochem 1987; 162:156-59). Twenty μg of RNA were fractionated on 1% formaldehyde agarose gels and transferred to nylon membranes (Hybond N, Amersham UK) and hybridized with a tilapia IGF-I cDNA probe and subsequently rehybridized with a human gliceraldehyde 3 phosphate dehydrogenase cDNA (GAPDH, kindly given by Dr. Bryan Williams, Cleveland Foundation, OH, USA) to normalize the signals. Hybridization signals were quantified by digital image processing of scanned gels with a Hewlett Packard Scanjet Plus scanner. Images were processed with the Bandleader computer program. […]

juvenile tilapia [4] = assay: Growth promoting activity in juvenile tilapia, oral intubation (non encapsulated and encapsulated peptide); assay type: in vivo, Oreochromis aureus
Method: as §1
GHRP-6 peptide was diluted in phosphate buffered saline (PBS) and administered through a plastic tube to the pharyngeal cavity to a group of seven male tilapia with average body weight 87.22±14.1 g. PBS was delivered to the control group (n=7, all male tilapia) with average weight 89.22±7.66 g. The treatment was done twice a week during three weeks at 0.1 μg/gbw. Body weight in grams was measured weekly. (FIG. 3)
For the encapsulation of peptide the capsules were obtained as previously reported by Knorr et al., 1988; using chitosan and alginic acid encapsulated peptide. The hexapeptide GHRP-6 was administered through a plastic tube to the pharyngeal cavity to seven male tilapia with average body weight 89.09±8.38 g. Polymer beads without peptide were administered to seven male tilapia with average weight 89.86±13.54 g as a control group. The treatment was performed twice a week at 0.14 μg/gbw. (FIG. 4)

Helmintos monogeneos = assay: Invasion intensity and extension of Helmintos monogeneos in the gill of tilapia treated by immersion; assay type: in vivo; details: for I: Invasion intensity: in the gill per fish
Method: as §2, §3, §4, §5

tilapia [5] = assay: Humidity and protein concentration in muscle of tilapia treated by immersion; assay type: in vivo, Oreochromis aureus
Method: as §2, §3, §4, §5

[6] = system: larvae shrimp Litopeneaus schmitti; assay: Shrimp larvae treated by immersion in production conditions; assay type: in vivo, Litopenaeus schmitti; details: production condition, vs non-treated group
Text: FIG. 8. Growth rate of larvae shrimp Litopeneaus schmitti in production conditions treated with GHRP-6 by immersion. The experiment was follow by six week. ***t-test p<0.001. Bars indicate standard error
In production condition the survival rate of the larvae was increased in 20% in the group treated with the GHRP-6 in comparison with the non-treated group. […] On the other hand the uniformity of the animals was higher in the group treated with the hexapeptide and the variation coefficient was lower in weigh and size (FIG. 8).

[7] = Grupo I, immersion 10 μg/100 mL
[8] = Grupo II, immersion 100 μg/100 mL
[9] = comparison II-III (100 μg/100 mL vs saline), significant
[10] = comparison III-I (saline vs 10 μg/100 mL)
[11] = 0.1 mg/L immersion, statistically significant
[12] = 0.1 mg/L, four 1 hour immersions, each three days, vs BSA control
[13] = comparison III-I (saline vs 10 μg/100 mL), significant

His-D-Trp-Ala-Trp-D-Phe-Lys-NH2 (H[dW]AW[dF]K-NH2) [GHRP-6, known GH releasing hexapeptide (GH secretagogue), bought from BACHEM]
growth (increase in growth rate) vs control (juvenile tilapia [1]): significantly stimulated growth
E: Invasion extension (protozoo Trichodina sp.; [7]): 100%
I: Invasion intensity (protozoo Trichodina sp.; [7]): 7.73
E: Invasion extension (protozoo Trichodina sp.; [8]): 84.6%
I: Invasion intensity (protozoo Trichodina sp.; [8]): 2.80
Statistically difference, Trichodina sp. invasion (protozoo Trichodina sp.; comparison I-II): (4.42)
Statistically difference, Trichodina sp. invasion (protozoo Trichodina sp.; [9]): (5.84)*
Statistically difference, Trichodina sp. invasion (protozoo Trichodina sp.; [10]): (1.42)
serum GH levels (serum GH): increased
number of bone rostral [2, 11]: increase
number of gill ramifications [2, 11]: increase
increase of mean size [2, 12]: 26%
increase of mean weigh [2, 12]: 153%
relation Protein/DNA in muscle ([2]; all treated animals vs control): increased
relation RNA/DNA in muscle ([2]; all treated animals vs control): increased
water content in the muscle ([2]; all treated animals vs control): lower water content in the muscle
Mean weigh ± DS (tilapia [3]; [7]): 4.56 ± 1.07 g
Mean weigh ± DS (tilapia [3]; [8]): 4.54 ± 1.38 g
Statistically difference, mean weigh (tilapia [3]; comparison I-II (10 vs 100 μg/100 mL)): 0.01454
Statistically difference, mean weigh (tilapia [3]; [9]): 1.072*
Statistically difference, mean weigh (tilapia [3]; [13]): 1.086*
level of hepatic IGF mRNA (tilapia IGF mRNA; 30 min after intraperitoneal injection): increased significantly
level of hepatic IGF mRNA (tilapia IGF mRNA; six hours after intraperitoneal injection): backing to the normal value
body weight gain, encapsulated vs non encapsulated orally intubated treatment (juvenile tilapia [4]; comparison between both oral treatments, P<0.05): higher body weight gain
body weight to the end of the treatment vs control (juvenile tilapia [4]; orally intubated encapsulated peptide): statistically differences in the body weight
E: Invasion extension (Helmintos monogeneos; [7]): 34.7%
I: Invasion intensity (Helmintos monogeneos; [7]): 0.39
E: Invasion extension (Helmintos monogeneos; [8]): 50%
I: Invasion intensity (Helmintos monogeneos; [8]): 0.66
Statistically difference, Helmintos monogeneos invasion (Helmintos monogeneos; comparison I-II): (0.304)
Statistically difference, Helmintos monogeneos invasion (Helmintos monogeneos; comparison II-III (100 μg/100 mL vs saline)): (0.521)
Statistically difference, Helmintos monogeneos invasion (Helmintos monogeneos; [13]): (0.826)*
Mean humidity ± SD in muscle (tilapia [5]; [7]): 82.96 ± 3.63%
Mean humidity ± SD in muscle (tilapia [5]; [8]): 83.5 ± 3.31%
Statistically difference, humidity in muscle (tilapia [5]; comparison I-II): (0.791)
Statistically difference, protein concentration (tilapia [5]; comparison I-II, significant): (1.160)*
Statistically difference, humidity in muscle (tilapia [5]; [9]): (2.666)*
Statistically difference, protein concentration (tilapia [5]; [9]): (1.38)*
Statistically difference, humidity in muscle (tilapia [5]; [10]): (3.458)
Statistically difference, protein concentration (tilapia [5]; [13]): (2.64)*
increase of size [6]: 37%
increase of survival rate of the larvae [6]: 20%
increase of weigh [6]: 115%
uniformity of the animals [6]: higher
variation coefficient in weigh and size [6]: lower
